Experimental data as given in ChEMBL document CHEMBL1772973, “Design, synthesis, radiolabeling, and in vitro and in vivo evaluation of bridgehead iodinated analogues of N-{2-[4-(2-methoxyphenyl)piperazin-1-yl]ethyl}-N-(pyridin-2-yl)cyclohexanecarboxamide (WAY-100635) as potential SPECT ligands for the 5-HT1A receptor” (J Med Chem, 2011).

Tests used:
Assay type in all cases: ADME, organism-based
Kidney [1] = assay: Biodistribution in Wistar rat kidney at 7 MBq, iv after 120 mins; settings: in vivo, 2 h
Rattus norvegicus [2] = assay: Biodistribution in Wistar rat rest cortex at 7 MBq, iv after 45 mins; settings: in vivo, 0.75 h
Nucleic Acid [3] = assay: Ratio of drug level in cerebellum to hippocampus in Wistar rat at 7 MBq, iv after 45 mins; settings: in vivo, 0.75 h
Rattus norvegicus [4] = assay: Biodistribution in Wistar rat frontal cortex at 7 MBq, iv after 120 mins; settings: in vivo, 2 h
Heart [5] = assay: Biodistribution in Wistar rat heart at 7 MBq, iv after 45 mins; settings: in vivo, 0.75 h
Rattus norvegicus [6] = assay: Biodistribution in Wistar rat rest cortex at 7 MBq, iv after 120 mins; settings: in vivo, 2 h
Kidney [7] = assay: Biodistribution in Wistar rat kidney at 7 MBq, iv after 15 mins; settings: in vivo, 0.25 h
Lung [8] = assay: Biodistribution in Wistar rat lung at 7 MBq, iv after 45 mins; settings: in vivo, 0.75 h
Rattus norvegicus [9] = assay: Biodistribution in Wistar rat frontal cortex at 7 MBq, iv after 45 mins; settings: in vivo, 0.75 h
Nucleic Acid [10] = assay: Ratio of drug level in cerebellum to striatum in Wistar rat at 7 MBq, iv after 45 mins; settings: in vivo, 0.75 h
Thyroid gland [11] = assay: Biodistribution in Wistar rat thyroid assessed per organ at 7 MBq, iv after 15 mins; settings: in vivo, 0.25 h
Cerebellum [12] = assay: Biodistribution in Wistar rat cerebellum at 7 MBq, iv after 15 mins; settings: in vivo, 0.25 h
Cerebellum [13] = assay: Biodistribution in Wistar rat cerebellum at 7 MBq, iv after 45 mins; settings: in vivo, 0.75 h
Liver [14] = assay: Biodistribution in Wistar rat liver at 7 MBq, iv after 15 mins; settings: in vivo, 0.25 h
Striatum [15] = assay: Biodistribution in Wistar rat striatum at 7 MBq, iv after 15 mins; settings: in vivo, 0.25 h
Hippocampus [16] = assay: Biodistribution in Wistar rat hippocampus at 7 MBq, iv after 45 mins; settings: in vivo, 0.75 h
Blood [17] = assay: Biodistribution in Wistar rat blood at 7 MBq, iv after 120 mins; settings: in vivo, 2 h
Thyroid gland [18] = assay: Biodistribution in Wistar rat thyroid assessed per organ at 7 MBq, iv after 120 mins; settings: in vivo, 2 h
Rattus norvegicus [19] = assay: Biodistribution in Wistar rat frontal cortex at 7 MBq, iv after 15 mins; settings: in vivo, 0.25 h
Nucleic Acid [20] = assay: Ratio of drug level in cerebellum to occipital cortex in Wistar rat at 7 MBq, iv after 45 mins; settings: in vivo, 0.75 h
Rattus norvegicus [21] = assay: Biodistribution in Wistar rat rest cortex at 7 MBq, iv after 15 mins; settings: in vivo, 0.25 h
Kidney [22] = assay: Biodistribution in Wistar rat kidney at 7 MBq, iv after 45 mins; settings: in vivo, 0.75 h
Striatum [23] = assay: Biodistribution in Wistar rat striatum at 7 MBq, iv after 120 mins; settings: in vivo, 2 h
Nucleic Acid [24] = assay: Ratio of drug level in cerebellum to frontal cortex in Wistar rat at 7 MBq, iv after 45 mins; settings: in vivo, 0.75 h
Liver [25] = assay: Biodistribution in Wistar rat liver at 7 MBq, iv after 45 mins; settings: in vivo, 0.75 h
Striatum [26] = assay: Biodistribution in Wistar rat striatum at 7 MBq, iv after 45 mins; settings: in vivo, 0.75 h
Lung [27] = assay: Biodistribution in Wistar rat lung at 7 MBq, iv after 120 mins; settings: in vivo, 2 h
Heart [28] = assay: Biodistribution in Wistar rat heart at 7 MBq, iv after 15 mins; settings: in vivo, 0.25 h
Liver [29] = assay: Biodistribution in Wistar rat liver at 7 MBq, iv after 120 mins; settings: in vivo, 2 h
Occipital cortex [30] = assay: Biodistribution in Wistar rat occipital cortex at 7 MBq, iv after 120 mins; settings: in vivo, 2 h
Cerebellum [31] = assay: Biodistribution in Wistar rat cerebellum at 7 MBq, iv after 120 mins; settings: in vivo, 2 h
Occipital cortex [32] = assay: Biodistribution in Wistar rat occipital cortex at 7 MBq, iv after 15 mins; settings: in vivo, 0.25 h
Blood [33] = assay: Biodistribution in Wistar rat blood at 7 MBq, iv after 15 mins; settings: in vivo, 0.25 h
Hippocampus [34] = assay: Biodistribution in Wistar rat hippocampus at 7 MBq, iv after 120 mins; settings: in vivo, 2 h
Blood [35] = assay: Biodistribution in Wistar rat blood at 7 MBq, iv after 45 mins; settings: in vivo, 0.75 h
Occipital cortex [36] = assay: Biodistribution in Wistar rat occipital cortex at 7 MBq, iv after 45 mins; settings: in vivo, 0.75 h
Lung [37] = assay: Biodistribution in Wistar rat lung at 7 MBq, iv after 15 mins; settings: in vivo, 0.25 h
Heart [38] = assay: Biodistribution in Wistar rat heart at 7 MBq, iv after 120 mins; settings: in vivo, 2 h
Hippocampus [39] = assay: Biodistribution in Wistar rat hippocampus at 7 MBq, iv after 15 mins; settings: in vivo, 0.25 h

Drug uptake (Kidney [1]): 3.12 % ID/g
Drug uptake (Rattus norvegicus [2]): 0.09 % ID/g
Ratio (Nucleic Acid [3]): 2.38
Drug uptake (Rattus norvegicus [4]): 0.04 % ID/g
Drug uptake (Heart [5]): 0.14 % ID/g
Drug uptake (Rattus norvegicus [6]): 0.03 % ID/g
Drug uptake (Kidney [7]): 5.54 % ID/g
Drug uptake (Lung [8]): 0.3 % ID/g
Drug uptake (Rattus norvegicus [9]): 0.11 %ID
Ratio (Nucleic Acid [10]): 0.93
Drug uptake (Thyroid gland [11]): 0.28 %ID
Drug uptake (Cerebellum [12]): 0.25 % ID/g
Drug uptake (Cerebellum [13]): 0.08 % ID/g
Drug uptake (Liver [14]): 2.38 % ID/g
Drug uptake (Striatum [15]): 0.23 % ID/g
Drug uptake (Hippocampus [16]): 0.18 % ID/g
Drug uptake (Blood [17]): 0.22 % ID/g
Drug uptake (Thyroid gland [18]): 0.25 %ID
Drug uptake (Rattus norvegicus [19]): 0.34 % ID/g
Ratio (Nucleic Acid [20]): 1.73
Drug uptake (Rattus norvegicus [21]): 0.28 % ID/g
Drug uptake (Kidney [22]): 5.47 % ID/g
Drug uptake (Striatum [23]): 0.03 % ID/g
Ratio (Nucleic Acid [24]): 1.44
Drug uptake (Liver [25]): 2.08 % ID/g
Drug uptake (Striatum [26]): 0.07 % ID/g
Drug uptake (Lung [27]): 0.19 % ID/g
Drug uptake (Heart [28]): 0.22 % ID/g
Drug uptake (Liver [29]): 1.97 % ID/g
Drug uptake (Occipital cortex [30]): 0.04 % ID/g
Drug uptake (Cerebellum [31]): 0.04 % ID/g
Drug uptake (Occipital cortex [32]): 0.37 % ID/g
Drug uptake (Blood [33]): 0.18 % ID/g
Drug uptake (Hippocampus [34]): 0.05 % ID/g
Drug uptake (Blood [35]): 0.2 % ID/g
Drug uptake (Occipital cortex [36]): 0.13 % ID/g
Drug uptake (Lung [37]): 0.59 % ID/g
Drug uptake (Heart [38]): 0.12 % ID/g
Drug uptake (Hippocampus [39]): 0.44 % ID/g
SMILES: O=C(N(CCN1CCN(c2ccccc2O)CC1)c1ccccn1)C12C3C4C1C1C2C3C41[123I] (centres undefined)
